Measurements as given in patent publication US9764037B2, “Conjugate compounds” (Victoria Link Limited, priority 2012, dated 2017).

Experiments:
splenic dendritic cells = assay: Impact of prior vaccination on response to free α-GalCer two weeks later, CD86 on splenic dendritic cells (FIGS. 6, 7); format: in vivo, mice; conditions: 200 ng α-GalCer intravenously two weeks after vaccination, FIGS. 6 and 7
Protocol: Flow cytometry is used to assess CD86 upregulation on splenic dendritic cells after intravenous injection of 200 ng α-GalCer, which is used as a readout of NKT cell activity. Mean fluorescence index (MFI)±SEM are presented. […] Each dot represents a different animal; mean per treatment group (n=3)±SEM are presented. ***p<0.001, **p<0.01, * p<0.05.

[1] = HPLC-ESI-MSMS quantification of α-GalCer in formulated test samples; format: physicochemical; conditions: level of α-GalCer in freshly reconstituted formulated samples
Protocol: Compounds of the invention are formulated analogously to reported methods for α-GalCer. Briefly, solubilisation of α-GalCer is based on excipient proportions described by Giaccone et al. (Giaccone, Punt et al. 2002). Thus, 100 μL of a 10 mg/mL solution of α-GalCer or a compound of the invention in 9:1 THF/MeOH is added to 1.78 mL of an aqueous solution of Tween 20 (15.9 mg), sucrose (177 mg) and L-histidine (23.8 mg). This homogeneous mixture is freeze dried and the resulting foam is stored under Ar at −18° C. This material is reconstituted with 1.0 mL of PBS or water prior to serial dilutions in PBS to achieve final injectable solutions of α-GalCer or compounds of the invention.
Quantification of the amount of α-GalCer in various test samples of compounds of the invention is made by HPLC-ESI-MSMS analysis using a Waters 2795 HPLC and a Waters Q-TOF Premier™ Tandem Mass Spectrometer. The chromatography used a Phenomenex Kinetex C18 […] 3.0×50 mm column eluting with isocratic methanol containing 10 mM ammonium formate+0.5% formic acid at a flow rate of 0.2 mL/min. α-GalCer is monitored by selective […] monitoring of 898.7 to 696.7 Da. The estimate of amount of α-GalCer is made by comparison of ion count integrals to a standard curve run on the same day or by comparison to test samples spiked with a known amount of α-GalCer. The level of α-GalCer is determined on freshly reconstituted formulated samples unless otherwise stated

[2] = Ebensen, Link et al. 2007; cited from earlier work
T-cell = conditions: Parekh, Wilson et al. 2005; cited from earlier work
[3] = Giaccone, Punt et al. 2002; cited from earlier work
CD11c+ dendritic cells = assay: CD86 expression on splenic dendritic cells after intravenous injection (FIG. 1); format: in vivo, C57BL/6 mice; conditions: 0.571 nmol intravenously, spleens 20 h later
Protocol: Groups of C57BL/6 mice (n=3) are injected intravenously with 0.571 nmol of the indicated compounds and then the spleens removed 20 h later for the analysis of CD86 expression on CD11c^+ dendritic cells by antibody labelling and flow cytometry. Mean fluorescence index (MFI)±SEM are presented.
Antibody staining and flow cytometry is used to examine the expression of maturation markers on dendritic cells in the spleen following injection of compounds of the invention. Splenocyte preparations are prepared by gentle teasing of splenic tissue through gauze in Iscove's Modified Dulbecco's Medium with 2 mM glutamine, 1% penicillin-streptomycin, 5×10^-5 M 2-mercapto-ethanol and 5% fetal bovine serum (all Invitrogen, Auckland, New Zealand), followed by lysis of red blood cells with RBC lysis buffer (Puregene, Gentra Systems, Minneapolis, Minn., USA). Antibody staining is performed in PBS 2% fetal bovine serum and 0.01% sodium azide. The anti-FcgRII monoclonal antibody 2.4G2 is used at […] to inhibit non-specific staining. Monoclonal antibodies (all BD Biosciences Pharmingen, San Jose, Calif., USA) are used to examine expression of the maturation markers CD40, CD80 and CD86 on CD11c+ dendritic cells.

[4] = system: SIINFEKL-specific T cells; assay: Analysis of peptide-specific T cell proliferation in vivo (FIGS. 2, 5, 8, 9); set-up: species or system mice
Protocol: (SEQ ID NO:262) peptide in each case. To increase sensitivity of the assay, all mice are initially donated a cohort of 10,000 […] (SEQ ID NO:262)-specific T cells from a transgenic mouse encoding a T cell receptor for this antigen (OT-1 mice) by intravenous injection of the cells one day before the vaccines are administered. […] It is therefore possible to enumerate […] (SEQ ID NO:262)-specific T cells in blood by flow cytometry using antibodies for CD45.1 together with antibodies for the transgenic T cell receptor (Vα2). […] Control animals are injected with the diluent phosphate-buffered saline (PBS). […] Each dot represents a different animal; mean per treatment group±SEM are presented.
Accumulation of antigen-specific T cells in the blood in response to vaccination is measured 7 days later, as described for FIG. 2.
Pooled lymph node cell suspensions are prepared from animals of a cross between OT-I mice, which express a transgenic T cell receptor (TCR) specific for the ovalbumin epitope […] in the context of H-2K^b molecules, and B6.SJL-Ptprc^a Pepc^b/BoyJ mice, which are congenic with C57BL/6 mice for the CD45.1^+ marker. The samples are enriched for CD8^+ cells using antibody coated magnetic beads (Miltenyi), and then transferred into recipient mice (1×10^4 per mouse). Groups of recipient animals (n=5) are immunized with compounds of the invention one day later. Doses are chosen to provide equivalent molar values of […] peptide. Control animals receive phosphate-buffered saline. After seven days, blood samples are collected from the lateral tail vein and stained directly ex vivo with antibodies for TCR Vα2, CD45.1 and CD8 to detect the […]-specific CD8^+ T cells by flow cytometry.

[5] = system: leukocyte infiltration into the lungs; assay: Allergic airway inflammation in OVA-sensitized animals (FIG. 13); format: in vivo, mice; conditions: three days after challenge
Protocol: Control animals receive intranasal PBS instead of challenge, and positive control groups receive challenge but no treatment (“OVA”). The prodrug vaccines and admixed α-GalCer and peptide are administered seven days before challenge […], while the in vitro activated OVA257-specific CTL are administered one day before challenge (day 23). The total numbers of cells in BAL fluid (left), and numbers of eosinophils (right), are evaluated three days after challenge by flow cytometry.

Compound | DC activation (CD86 upregulation) on administration of free α-GalCer after earlier vaccination (splenic dendritic cells) | α-GalCer/injection [1] | solubility [2] | T-cell anergy (T-cell) | efficacy in human clinical trials [3] | activation of DCs (expression of activation marker CD86 on splenic DCs) (CD11c+ dendritic cells) | T cell expansion on repeated administration ([4]; FIG. 8) | T cell response on boosting after priming with SIINFEKL with α-GalCer (unconjugated) ([4]; boost day 14 or 35, read day 21 or 42, blood, FIG. 9) | dependence of the T cell response on langerin+ CD8α+ DCs ([4]; depletion by diphtheria toxin, FIG. 2) | population of SIINFEKL-specific T cells (Vα2+ CD45.1+) in blood ([4]; intravenous vaccination, compared with admixed α-GalCer and peptide, lang-EGFPDTR mice, FIG. 2) | leukocyte infiltration into the lungs (total number of cells in BAL fluid) ([5]; vaccination of sensitized mice one week before challenge) | infiltration of eosinophils (BAL fluid) ([5]; vaccination seven days before challenge)
CCCCCCCCCCCCCCCCCCCCCCCCCC(=O)OC(CCCCCCCCCCCCCC)C(O)C(COC1OC(CO)C(O)C(O)C1O)NC(=O)OCc1ccc(NC(=O)C(CCCNC(N)=O)NC(=O)C(NC(=O)OCc2ccccc2)C(C)C)cc1 [CN165, (2S,3S,4R)-1-O-α-D-Galactopyranosyl-4-O-hexacosanoyl-2-(N-Cbz-Val-Cit-4-aminobenzyloxycarbonylamino) octadecane-1,3,4-triol] | some DC activation | 0.028 ng |  |  |  |  |  |  |  |  |  | 
CCCCCCCCCCCCCCCCCCCCCCCCCC(=O)OC(CCCCCCCCCCCCCC)C(O)C(COC1OC(CO)C(O)C(O)C1O)NC(=O)OCc1ccc(NC(=O)C(CCCCN)NC(=O)C(Cc2ccccc2)NC(=O)OCc2ccccc2)cc1 [CN166, (2S,3S,4R)-1-O-α-D-Galactopyranosyl-4-O-hexacosanoyl-2-(N-Cbz-Phe-Lys-4-aminobenzyloxycarbonylamino) octadecane-1,3,4-triol] | some DC activation | 0.136 ng |  |  |  |  |  |  |  |  |  | 
CCCCCCCCCCCCCCCCCCCCCCCCCC(=O)N[C@@H](CO[C@H]1O[C@H](CO)[C@H](O)[C@H](O)[C@H]1O)[C@H](O)[C@H](O)CCCCCCCCCCCCCC [α-GalCer, α-Galactosylceramide] | no measurable activation of DCs |  | poor solubility | promotion of T-cell anergy | lack of efficacy |  |  |  |  |  |  | 
(2S,3S,4R)-1-O-α-D-Galactopyranosyl-4-hexacosanoyl-2-((4-(2-(FFRKSIINFEKL)-2-oxoethoxy)imino)pentanoyloxy)methoxycarbonylamino) octadecane-1,3,4-triol [CN152] | some DC activation | 0.05 ng |  |  |  | potently activates DCs | induces further T cell expansion | induces measurable T cell responses | dependent on langerin^+ CD8α^+ DCs | larger population of peptide-specific T cells | significantly suppress leukocyte infiltration into the lungs | superior to both CN178 and admixed groups
